# Test results published in PubChem BioAssay AID2060491 (Molecular Pharmacology Branch, DTP, NCI, 2025).
# System: 857933-349-R-J2-PDC complex spheroids, viability
# Experiment: Anticancer human tumor 857933-349-R-J2-PDC patient-derived colon adenocarcinoma cell line growth inhibition [GQUAD]
# Conditions: for IC50: curve of first compound; for viability, T/C: stronger effect = lower value
# Outline: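 Multi-cell-type spheroids of tumor cells with HUVEC and mesenchymal stem cells, treated with drug combinations. Concentrations descend in half-log steps from near clinical Cmax, or from 10 microM where Cmax is unknown; viability read-out.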
# [1] = second compound 0.0316 µM, first compound 0.0316 µM
# [2] = second compound 0.0316 µM, first compound 0.1 µM
# [3] = second compound 0.0316 µM, first compound 0.316 µM
# [4] = second compound 0.0316 µM, first compound 1 µM
# [5] = second compound 0.0316 µM, first compound 3.16 µM
# [6] = second compound 0.0316 µM, first compound 10 µM
# [7] = second compound 0.1 µM, first compound 0.0316 µM
# [8] = second compound 0.1 µM, first compound 0.1 µM
# [9] = second compound 0.1 µM, first compound 0.316 µM
# [10] = second compound 0.1 µM, first compound 1 µM
# [11] = second compound 0.1 µM, first compound 3.16 µM
# [12] = second compound 0.1 µM, first compound 10 µM
# [13] = second compound 0.316 µM, first compound 0.0316 µM
# [14] = second compound 0.316 µM, first compound 0.1 µM
# [15] = second compound 0.316 µM, first compound 0.316 µM
# [16] = second compound 0.316 µM, first compound 1 µM
# [17] = second compound 0.316 µM, first compound 3.16 µM
# [18] = second compound 0.316 µM, first compound 10 µM
# [19] = second compound 1 µM, first compound 0.0316 µM
# [20] = second compound 1 µM, first compound 0.1 µM
# [21] = second compound 1 µM, first compound 0.316 µM
# [22] = second compound 1 µM, first compound 1 µM
# [23] = second compound 1 µM, first compound 3.16 µM
# [24] = second compound 1 µM, first compound 10 µM
# [25] = second compound 3.16 µM, first compound 0.0316 µM
# [26] = second compound 3.16 µM, first compound 0.1 µM
# [27] = second compound 3.16 µM, first compound 0.316 µM
# [28] = second compound 3.16 µM, first compound 1 µM
# [29] = second compound 3.16 µM, first compound 3.16 µM
# [30] = second compound 3.16 µM, first compound 10 µM
# [31] = second compound 10 µM, first compound 0.0316 µM
# [32] = second compound 10 µM, first compound 0.1 µM
# [33] = second compound 10 µM, first compound 0.316 µM
# [34] = second compound 10 µM, first compound 1 µM
# [35] = second compound 10 µM, first compound 3.16 µM
# [36] = second compound 10 µM, first compound 10 µM
# 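Note: spheroids exposed to compounds for one week before readout.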
# 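Throughout, for viability, T/C: percent viability relative to vehicle DMSO wells taken as 100%.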
smiles,measurement,setting,value
C#Cc1c(F)ccc2cc(O)cc(-c3ncc4c(N5CC6CCC(C5)N6)nc(OCC56CCCN5CC(F)C6)nc4c3F)c12 (stereo unspecified) + Cc1cnc(CNC(=O)c2c(=O)c3ccc(N4CCCN(C)CC4)nc3n3c2sc2ccccc23)cn1,IC50,second compound 0.0316 µM,> 10000 nM
same,IC50,second compound 0.1 µM,> 10000 nM
same,IC50,second compound 0.316 µM,< 31.6 nM
same,IC50,second compound 1 µM,< 31.6 nM
same,IC50,second compound 3.16 µM,< 31.6 nM
same,IC50,second compound 10 µM,< 31.6 nM
same,"viability, T/C",[1],101%
same,"viability, T/C",[2],81.6%
same,"viability, T/C",[3],72.6%
same,"viability, T/C",[4],64.5%
same,"viability, T/C",[5],76.5%
same,"viability, T/C",[6],63.5%
same,"viability, T/C",[7],59%
same,"viability, T/C",[8],64.7%
same,"viability, T/C",[9],54.6%
same,"viability, T/C",[10],61.5%
same,"viability, T/C",[11],68.3%
same,"viability, T/C",[12],64.3%
same,"viability, T/C",[13],23.7%
same,"viability, T/C",[14],24.6%
same,"viability, T/C",[15],22.4%
same,"viability, T/C",[16],19.5%
same,"viability, T/C",[17],22.6%
same,"viability, T/C",[18],25.7%
same,"viability, T/C",[19],3.9%
same,"viability, T/C",[20],5%
same,"viability, T/C",[21],2.72%
same,"viability, T/C",[22],2.84%
same,"viability, T/C",[23],3.14%
same,"viability, T/C",[24],1.95%
same,"viability, T/C",[25],2.08%
same,"viability, T/C",[26],2.35%
same,"viability, T/C",[27],1.86%
same,"viability, T/C",[28],1.3%
same,"viability, T/C",[29],1.63%
same,"viability, T/C",[30],0.57%
same,"viability, T/C",[31],0.16%
same,"viability, T/C",[32],0.2%
same,"viability, T/C",[33],0.25%
same,"viability, T/C",[34],0.19%
same,"viability, T/C",[35],0.24%
same,"viability, T/C",[36],0.21%
O=c1[nH]cc(F)c(=O)[nH]1 + Cc1cnc(CNC(=O)c2c(=O)c3ccc(N4CCCN(C)CC4)nc3n3c2sc2ccccc23)cn1,IC50,second compound 0.0316 µM,1500 nM
same,IC50,second compound 0.1 µM,859 nM
same,IC50,second compound 0.316 µM,< 31.6 nM
same,IC50,second compound 1 µM,< 31.6 nM
same,IC50,second compound 3.16 µM,< 31.6 nM
same,IC50,second compound 10 µM,< 31.6 nM
same,"viability, T/C",[1],95%
same,"viability, T/C",[2],95.9%
same,"viability, T/C",[3],87.3%
same,"viability, T/C",[4],60.8%
same,"viability, T/C",[5],30%
same,"viability, T/C",[6],18.9%
same,"viability, T/C",[7],72.2%
same,"viability, T/C",[8],84.7%
same,"viability, T/C",[9],64.8%
same,"viability, T/C",[10],47%
same,"viability, T/C",[11],26.3%
same,"viability, T/C",[12],13.6%
same,"viability, T/C",[13],25.4%
same,"viability, T/C",[14],29.3%
same,"viability, T/C",[15],22.8%
same,"viability, T/C",[16],15.7%
same,"viability, T/C",[17],11%
same,"viability, T/C",[18],5.17%
same,"viability, T/C",[19],5.21%
same,"viability, T/C",[20],5.61%
same,"viability, T/C",[21],4.05%
same,"viability, T/C",[22],4.64%
same,"viability, T/C",[23],4.34%
same,"viability, T/C",[24],3.5%
same,"viability, T/C",[25],2.29%
same,"viability, T/C",[26],3.17%
same,"viability, T/C",[27],3.1%
same,"viability, T/C",[28],2.6%
same,"viability, T/C",[29],3.16%
same,"viability, T/C",[30],3.13%
same,"viability, T/C",[31],1.93%
same,"viability, T/C",[32],2.51%
same,"viability, T/C",[33],2.25%
same,"viability, T/C",[34],1.52%
same,"viability, T/C",[35],2.21%
same,"viability, T/C",[36],1.32%
COc1ncnc(C2CC2)c1-c1ncc2cnn(Cc3ccc(-c4nc(C(F)(F)F)cn4C(C)C)cc3)c2n1 + CN(C)c1ccc(Nc2c3ccc(NC(=O)CCN4CCCC4)cc3nc3cc(NC(=O)CCN4CCCC4)ccc23)cc1,IC50,second compound 0.0316 µM,> 10000 nM
same,IC50,second compound 0.1 µM,> 10000 nM
same,IC50,second compound 0.316 µM,> 10000 nM
same,IC50,second compound 1 µM,> 10000 nM
same,IC50,second compound 3.16 µM,> 10000 nM
same,IC50,second compound 10 µM,> 10000 nM
same,"viability, T/C",[1],106%
same,"viability, T/C",[2],99.8%
same,"viability, T/C",[3],102%
same,"viability, T/C",[4],101%
same,"viability, T/C",[5],104%
same,"viability, T/C",[6],104%
same,"viability, T/C",[7],99.9%
same,"viability, T/C",[8],103%
same,"viability, T/C",[9],102%
same,"viability, T/C",[10],101%
same,"viability, T/C",[11],105%
same,"viability, T/C",[12],109%
same,"viability, T/C",[13],104%
same,"viability, T/C",[14],104%
same,"viability, T/C",[15],97.3%
same,"viability, T/C",[16],90.8%
same,"viability, T/C",[17],104%
same,"viability, T/C",[18],99.2%
same,"viability, T/C",[19],97.7%
same,"viability, T/C",[20],88.5%
same,"viability, T/C",[21],94.6%
same,"viability, T/C",[22],92.7%
same,"viability, T/C",[23],90.7%
same,"viability, T/C",[24],87.6%
same,"viability, T/C",[25],83.9%
same,"viability, T/C",[26],77.7%
same,"viability, T/C",[27],82.5%
same,"viability, T/C",[28],74.2%
same,"viability, T/C",[29],79.6%
same,"viability, T/C",[30],67.3%
same,"viability, T/C",[31],64.6%
same,"viability, T/C",[32],63.1%
same,"viability, T/C",[33],66.2%
same,"viability, T/C",[34],61.6%
same,"viability, T/C",[35],56.5%
same,"viability, T/C",[36],52.2%
